Data as given in ChEMBL document CHEMBL5500364, “Design, synthesis, and biological evaluation of some 2-(3-oxo-5,6-diphenyl-1,2,4-triazin-2(3H)-yl)-N-phenylacetamide hybrids as MTDLs for Alzheimer's disease therapy” (Eur J Med Chem, 2024).
pIC50: −log10 of the molar value. Active and inactive are the calls of the source. No cut-off for these calls is given here.

Experiments:
Acetylcholinesterase = Acetylcholinesterase (Homo sapiens, UniProt P22303); assay: Inhibition of human erythrocyte AChE using acetylthiocholine iodide as substrate preincubated for 30 mins followed by substrate addition by DTNB based Ellman's colorimetric method
Cholinesterase = Cholinesterase (Homo sapiens, UniProt P06276); assay: Inhibition of human BChE using butyrylthiocholine iodide as substrate preincubated for 30 mins followed by substrate addition by DTNB based Ellman's colorimetric method
[1] = target: Dual specificity tyrosine-phosphorylation-regulated kinase 1A (Homo sapiens, UniProt Q13627); assay: Inhibition of Dyrk1A (unknown origin) incubated for 1 hrs in presence of [gamma-33P]-ATP by microplate scintillation counter based radiometric protein kinase assay
Beta-secretase 1 = Beta-secretase 1 (Homo sapiens, UniProt P56817); assay: Inhibition of human BACE-1 using (7-Methoxycoumarin-4-acetyl-[Asn670, Leu671]-Amyloid beta/A4 precursor protein 770 fragments 667-676- (2, 4-dinitrophenyl) Lys-Arg-Arg amide trifluoroacetate salt as substrate incubated for 2 hrs by FRET-based analysis
[2] = target: Amyloid-beta precursor protein (Homo sapiens) (UniProt P05067); assay: Inhibition of amyloid beta (1 to 42) (unknown origin) aggregation assessed as maximum peak height of aggregates incubated for 48 hrs by AFM analysis
[3] = target: Amyloid-beta precursor protein (Homo sapiens) (UniProt P05067); assay: Inhibition of amyloid beta (1 to 42) (unknown origin) aggregation assessed as appearance of thinner aggregates at 50 uM incubated for 48 hrs by TEM imaging analysis
[4] = target: Amyloid-beta precursor protein (Homo sapiens) (UniProt P05067); assay: Inhibition of amyloid beta (1 to 42) (unknown origin) self aggregation ar 5 to 20 uM incubated for 48 hrs by Thioflavin T fluorescence assay relative to control; settings: dose 5-20 µM
[5] = target: Amyloid-beta precursor protein (Homo sapiens) (UniProt P05067); assay: Inhibition of amyloid beta (1 to 42) (unknown origin) aggregation assessed as reduction in size of amyloid-beta aggregates measured within 48 hrs by SEM imaging analysis
[6] = target: Amyloid-beta precursor protein (Homo sapiens) (UniProt P05067); assay: Inhibition of amyloid beta (1 to 42) (unknown origin) aggregation assessed as reduction in amyloid-beta aggregates at 50 uM incubated for 48 hrs by TEM analysis
[7] = Permeability of compound in PBS at pH 7.4 incubated for 18 hrs by PAMPA-BBB assay
SH-SY5Y [8] = assay: (§1) Neuroprotective activity against amyloid-beta(1 to 42) induced oxidative stress in differentiated human SH-SY5Y cells assessed as increase in cell viability at 40 uM preincubated with amyloid-beta (1 to 42 ) for 24 hrs followed by compound addition and measured after 48 hrs by MTT assay relative to control; assay type: functional
[9] = target: Amyloid-beta precursor protein (Homo sapiens) (UniProt P05067); assay: Inhibition of human AchE-induced amyloid beta (1 to 42) (unknown origin) aggregation at 5 to 20 uM incubated for 48 hrs by Thioflavin T fluorescence assay relative to control; settings: dose 5-20 µM
SH-SY5Y [10] = assay: as §1, with “72” for “48”; assay type: functional
[11] = Neurotoxicity in human SH-SY5Y cells assessed as reduction in cell population at 80 uM incubated for 24 hrs by MTT assay
Rattus norvegicus [12] = assay: Reversal of amyloid beta (1 to 42 residues) induced cognitive impairment in Wistar rat assessed as increase in platform crossings at 5 mg/kg, po pretreated with amyloid beta for 7 days followed by compound administration for 9 days and measured after 1 days by Morris water maze test; assay type: functional, organism-based; settings: time 10.0 day
Rattus norvegicus [13] = assay: (§2) Reversal of amyloid beta (1 to 42 residues) induced cognitive impairment in Wistar rat assessed as decrease in amyloid-beta level in DG region of hippocampus at 5 mg/kg, po pretreated with amyloid beta for 7 days followed by compound administration for 9 days and measured after 5 days by immuno histochemical analysis; assay type: functional, organism-based; settings: time 14.0 day
Rattus norvegicus [14] = assay: (§3) Antialzheimer activity against scopolamine-induced amnesia in male Wistar rat model assessed as increase in total arm enteries at 5 mg/kg, po preadministered with compound for 30 mins starting from 7 th day trail followed by scopolamine administration and measured after 5 mins by Y maze test; assay type: functional, organism-based; settings: time 35.0 min
Rattus norvegicus [15] = assay: (§4) Reversal of amyloid beta (1 to 42 residues) induced cognitive impairment in Wistar rat assessed as decrease in alpha-synuclein protein level at 5 mg/kg, po pretreated with amyloid beta for 7 days followed by compound administration for 9 days and measured after 5 days by Western blot analysis; assay type: functional, organism-based; settings: time 14.0 day
Rattus norvegicus [16] = assay: as §2, with “CA1” for “DG”; assay type: functional, organism-based; settings: time 14.0 day
Rattus norvegicus [17] = assay: Reversal of amyloid beta (1 to 42 residues) induced cognitive impairment in Wistar rat assessed as decrease in APP protein level at 5 mg/kg, po pretreated with amyloid beta for 7 days followed by compound administration for 9 days and measured after 5 days by Western blot analysis; assay type: functional, organism-based; settings: time 14.0 day
Rattus norvegicus [18] = assay: as §2, with “reduction” for “decrease”, “appearance of pyknotic neuron bodies” for “amyloid-beta level”, “in” for “in DG region of”, “Nissl's staining based” for “immuno histochemical”; assay type: functional, organism-based; settings: time 14.0 day
Rattus norvegicus [19] = assay: as §2, with “BACE-1” for “amyloid-beta”; assay type: functional, organism-based; settings: time 14.0 day
Rattus norvegicus [20] = assay: Reversal of amyloid beta (1 to 42 residues) induced cognitive impairment in Wistar rat assessed as decrease in Tau protein level at 5 mg/kg, po pretreated with amyloid beta for 7 days followed by compound administration for 9 days and measured after 5 days by Western blot analysis; assay type: functional, organism-based; settings: time 14.0 day
Rattus norvegicus [21] = assay: Reversal of amyloid beta (1 to 42 residues) induced cognitive impairment in Wistar rat assessed as reduction in escape latency time at 5 mg/kg, po pretreated with amyloid beta for 7 days followed by compound administration for 9 days and measured after 1 days by Morris water maze test; assay type: functional, organism-based; settings: time 10.0 day
Rattus norvegicus [22] = assay: as §2, with “CA3” for “DG”; assay type: functional, organism-based; settings: time 14.0 day
Rattus norvegicus [23] = assay: as §4, with “reduction” for “decrease”, “focal gliosis in cerebral cortex” for “alpha-synuclein protein level”, “Nissl's staining based” for “Western blot”; assay type: functional, organism-based; settings: time 14.0 day
Rattus norvegicus [24] = assay: Reversal of amyloid beta (1 to 42 residues) induced cognitive impairment in Wistar rat assessed as increase in platform crossings at 5 mg/kg, po pretreated with amyloid beta for 7 days followed by compound administration for 9 days and measured after 5 days by Morris water maze test; assay type: functional, organism-based; settings: time 14.0 day
Rattus norvegicus [25] = assay: as §3, with “restoration of memory function by measuring percentage spontaneous alteration” for “increase in total arm enteries”; assay type: functional, organism-based; settings: time 35.0 min
Rattus norvegicus [26] = assay: as §2, with “BACE-1” for “amyloid-beta”, “CA1” for “DG”; assay type: functional, organism-based; settings: time 14.0 day
Rattus norvegicus [27] = assay: as §2, with “BACE-1” for “amyloid-beta”, “CA3” for “DG”; assay type: functional, organism-based; settings: time 14.0 day
Rattus norvegicus [28] = assay: Reversal of amyloid beta (1 to 42 residues) induced cognitive impairment in Wistar rat assessed as reduction in escape latency time at 5 mg/kg, po pretreated with amyloid beta for 7 days followed by compound administration for 9 days and measured after 5 days by Morris water maze test; assay type: functional, organism-based; settings: time 14.0 day
Rattus norvegicus [29] = assay: Reversal of amyloid beta (1 to 42 residues) induced cognitive impairment in Wistar rat assessed as reduction in neural dispersion at DG region in hippocampus at 5 mg/kg, po pretreated with amyloid beta for 7 days followed by compound administration for 9 days and measured after 5 days by Nissl's staining based analysis; assay type: functional, organism-based; settings: time 14.0 day
Rattus norvegicus [30] = assay: Reversal of amyloid beta (1 to 42 residues) induced cognitive impairment in Wistar rat assessed as decrease in BACE-1 protein level at 5 mg/kg, po pretreated with amyloid beta for 7 days followed by compound administration for 9 days and measured after 5 days by Western blot analysis; assay type: functional, organism-based; settings: time 14.0 day

Chain of Cholinesterase (P06276 whole entry): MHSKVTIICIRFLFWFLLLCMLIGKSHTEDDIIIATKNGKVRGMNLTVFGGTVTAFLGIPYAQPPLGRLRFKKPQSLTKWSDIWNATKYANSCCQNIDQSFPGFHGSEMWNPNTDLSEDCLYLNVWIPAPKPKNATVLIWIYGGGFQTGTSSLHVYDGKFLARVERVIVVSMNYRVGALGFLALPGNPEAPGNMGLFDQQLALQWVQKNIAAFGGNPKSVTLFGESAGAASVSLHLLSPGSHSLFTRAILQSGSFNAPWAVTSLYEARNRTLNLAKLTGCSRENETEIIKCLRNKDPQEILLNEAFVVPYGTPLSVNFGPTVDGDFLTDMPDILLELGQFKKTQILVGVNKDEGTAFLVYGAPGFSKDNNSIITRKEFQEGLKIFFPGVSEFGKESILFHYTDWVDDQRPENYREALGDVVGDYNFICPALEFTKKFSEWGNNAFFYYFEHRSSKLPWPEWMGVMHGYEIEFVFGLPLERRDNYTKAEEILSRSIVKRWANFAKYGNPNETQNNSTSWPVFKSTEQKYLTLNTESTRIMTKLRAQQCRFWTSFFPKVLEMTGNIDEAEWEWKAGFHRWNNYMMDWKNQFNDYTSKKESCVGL
Chain of Beta-secretase 1 (P56817 whole entry, the tested form may be a part): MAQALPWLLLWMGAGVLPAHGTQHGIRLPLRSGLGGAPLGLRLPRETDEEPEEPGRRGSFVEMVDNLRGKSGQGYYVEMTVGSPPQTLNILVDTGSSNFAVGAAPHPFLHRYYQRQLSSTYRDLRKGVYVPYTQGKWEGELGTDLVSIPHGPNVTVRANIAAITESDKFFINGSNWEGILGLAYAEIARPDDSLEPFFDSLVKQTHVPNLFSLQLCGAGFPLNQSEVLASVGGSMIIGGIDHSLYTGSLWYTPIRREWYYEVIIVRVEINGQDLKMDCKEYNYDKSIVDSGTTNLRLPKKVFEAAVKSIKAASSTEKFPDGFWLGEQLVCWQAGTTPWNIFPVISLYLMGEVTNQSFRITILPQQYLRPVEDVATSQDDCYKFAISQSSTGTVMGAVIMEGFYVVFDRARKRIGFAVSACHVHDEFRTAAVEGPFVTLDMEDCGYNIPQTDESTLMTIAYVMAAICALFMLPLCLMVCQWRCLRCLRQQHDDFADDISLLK
Chain of Acetylcholinesterase (P22303 whole entry): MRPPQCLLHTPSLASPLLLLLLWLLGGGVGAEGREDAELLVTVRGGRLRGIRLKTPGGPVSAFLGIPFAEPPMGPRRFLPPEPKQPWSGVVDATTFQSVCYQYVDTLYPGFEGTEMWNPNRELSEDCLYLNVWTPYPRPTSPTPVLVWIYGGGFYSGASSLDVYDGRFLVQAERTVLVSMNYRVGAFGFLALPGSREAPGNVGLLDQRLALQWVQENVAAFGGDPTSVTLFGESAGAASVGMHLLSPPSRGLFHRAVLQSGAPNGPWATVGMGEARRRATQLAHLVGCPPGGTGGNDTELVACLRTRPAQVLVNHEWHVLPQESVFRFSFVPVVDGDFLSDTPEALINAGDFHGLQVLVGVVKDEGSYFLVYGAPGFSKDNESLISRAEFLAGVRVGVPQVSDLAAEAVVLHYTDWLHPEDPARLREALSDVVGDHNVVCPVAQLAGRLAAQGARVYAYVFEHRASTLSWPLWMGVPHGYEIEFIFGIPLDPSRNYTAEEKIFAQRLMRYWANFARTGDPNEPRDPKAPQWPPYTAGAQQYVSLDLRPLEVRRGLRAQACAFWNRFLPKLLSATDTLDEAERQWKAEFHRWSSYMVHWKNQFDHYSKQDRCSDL
Chain of Amyloid-beta precursor protein (Homo sapiens) (P05067 whole entry): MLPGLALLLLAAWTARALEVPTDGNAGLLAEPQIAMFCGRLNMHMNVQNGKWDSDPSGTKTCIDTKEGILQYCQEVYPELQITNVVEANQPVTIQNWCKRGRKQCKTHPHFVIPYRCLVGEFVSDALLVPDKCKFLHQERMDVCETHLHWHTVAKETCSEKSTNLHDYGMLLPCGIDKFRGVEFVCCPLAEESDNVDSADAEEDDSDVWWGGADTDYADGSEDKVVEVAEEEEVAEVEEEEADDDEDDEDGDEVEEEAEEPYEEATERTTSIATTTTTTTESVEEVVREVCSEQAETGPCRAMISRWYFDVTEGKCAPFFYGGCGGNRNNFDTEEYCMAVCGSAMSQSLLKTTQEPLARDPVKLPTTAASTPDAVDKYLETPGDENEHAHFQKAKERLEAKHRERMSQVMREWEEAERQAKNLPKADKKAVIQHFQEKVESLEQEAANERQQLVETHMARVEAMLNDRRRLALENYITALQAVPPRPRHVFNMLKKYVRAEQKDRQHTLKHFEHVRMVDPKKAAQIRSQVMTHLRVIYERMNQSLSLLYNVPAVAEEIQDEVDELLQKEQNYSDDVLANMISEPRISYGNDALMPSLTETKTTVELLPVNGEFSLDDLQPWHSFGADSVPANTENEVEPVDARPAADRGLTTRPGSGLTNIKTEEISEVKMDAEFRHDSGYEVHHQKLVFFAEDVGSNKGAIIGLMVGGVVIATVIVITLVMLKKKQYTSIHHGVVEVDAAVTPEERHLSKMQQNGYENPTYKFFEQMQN

SMILES | pIC50 (Acetylcholinesterase) | pIC50 (Cholinesterase) | pIC50 [1] | pIC50 (Beta-secretase 1) | further results
O=C(Cn1nc(-c2ccccc2)c(-c2ccccc2)nc1=O)Nc1ccc(F)cc1 | 6.08 | < 5.00 | < 5.00 | 6.16 | 
O=C(Cn1nc(-c2ccccc2)c(-c2ccccc2)nc1=O)Nc1ccc(Cl)cc1 | 5.85 | < 5.00 | < 5.00 | 5.72 | 
O=C(Cn1nc(-c2ccccc2)c(-c2ccccc2)nc1=O)Nc1ccccc1O | 6.12 | < 5.00 | < 5.00 | 6.02 | 
O=C(Cn1nc(-c2ccccc2)c(-c2ccccc2)nc1=O)Nc1ccc(O)cc1 | 5.94 | < 5.00 | < 5.00 | 5.79 | 
O=C(Cn1nc(-c2ccccc2)c(-c2ccccc2)nc1=O)Nc1ccccc1Cl | 6.14 | < 5.00 | < 5.00 | 6.22 | 
O=C(Cn1nc(-c2ccccc2)c(-c2ccccc2)nc1=O)Nc1ccccc1[N+](=O)[O-] | 6.13 | < 5.00 | < 5.00 | 6.04 | 
COc1cc(/C=C/C(=O)CC(=O)/C=C/c2ccc(O)c(OC)c2)ccc1O |  |  |  |  | Activity [2]: 206 nm; inhibition [3]: Active; inhibition [4]: 21.5%; inhibition [5]: Active; inhibition [6]: Active
N#Cc1ccccc1NC(=O)Cn1nc(-c2ccccc2)c(-c2ccccc2)nc1=O | 5.73 | < 5.00 | < 5.00 | 5.83 | 
Cc1ccccc1NC(=O)Cn1nc(-c2ccccc2)c(-c2ccccc2)nc1=O | 6.02 | < 5.00 | < 5.00 | 6.13 | 
O=C(Cn1nc(-c2ccccc2)c(-c2ccccc2)nc1=O)Nc1cccc([N+](=O)[O-])c1 | 5.95 | < 5.00 | < 5.00 | 5.90 | 
O=C(Cn1nc(-c2ccccc2)c(-c2ccccc2)nc1=O)Nc1ccc(Br)cc1 | 6.03 | < 5.00 | < 5.00 | 5.73 | 
COc1cc(NC(=O)Cn2nc(-c3ccccc3)c(-c3ccccc3)nc2=O)cc(OC)c1OC | 6.15 | < 5.00 | < 5.00 | 6.19 | Papp at 18 h [7]: 5.81 ×10⁻⁶ cm/s; Activity (SH-SY5Y [8]): 71%; inhibition [9]: 33.6%; inhibition [4]: 19.3%; Activity (SH-SY5Y [10]): 78%; Activity [11]: Non-Toxic
O=C(Cn1nc(-c2ccccc2)c(-c2ccccc2)nc1=O)Nc1ccc(F)cc1F | 5.94 | < 5.00 | < 5.00 | 5.84 | 
O=C(Cn1nc(-c2ccccc2)c(-c2ccccc2)nc1=O)Nc1cccc(Cl)c1 | 5.94 | < 5.00 | < 5.00 | 5.84 | 
O=C(Cn1nc(-c2ccccc2)c(-c2ccccc2)nc1=O)Nc1cc(Br)cc(Br)c1 | 6.11 | < 5.00 | < 5.00 | 5.90 | 
O=C(Cn1nc(-c2ccccc2)c(-c2ccccc2)nc1=O)Nc1ccc([N+](=O)[O-])cc1 | 5.97 | < 5.00 | < 5.00 | 5.88 | 
O=C(Cn1nc(-c2ccccc2)c(-c2ccccc2)nc1=O)Nc1ccc([N+](=O)[O-])cc1Cl | 6.16 | < 5.00 | 5.70 | 5.74 | 
N#Cc1cccc(NC(=O)Cn2nc(-c3ccccc3)c(-c3ccccc3)nc2=O)c1 | 5.90 | < 5.00 | < 5.00 | 5.96 | 
COc1cc2c(cc1OC)C(=O)C(CC1CCN(Cc3ccccc3)CC1)C2 (centres undefined) [DONEPEZIL] |  |  |  |  | Activity (Rattus norvegicus [12]): inactive; Activity (Rattus norvegicus [13]): Active; Activity (Rattus norvegicus [14]): Active; Activity (Rattus norvegicus [15]): Active; Activity (Rattus norvegicus [16]): Active; Activity (Rattus norvegicus [17]): Active; Activity (Rattus norvegicus [18]): Active; Activity (Rattus norvegicus [19]): Active; Activity (Rattus norvegicus [20]): Active; Activity (Rattus norvegicus [21]): inactive; Activity (Rattus norvegicus [22]): Active; Activity (Rattus norvegicus [23]): Active; Activity (Rattus norvegicus [24]): Active; Activity (Rattus norvegicus [25]): Active; Activity (Rattus norvegicus [26]): Active; Activity (Rattus norvegicus [27]): Active; Activity (Rattus norvegicus [28]): Active; Activity (Rattus norvegicus [29]): Active; Activity [11]: Non-Toxic; Activity (Rattus norvegicus [30]): Active
